According to patent publication US10449168B2 (The University of Toledo, priority 2015, dated 2019):
Entries after “also recorded” stand apart in the source; their conditions may differ.

Legend:
Assay type in all cases: biochemical
[1] = target: Streptococcus pneumoniae aspartate semialdehyde dehydrogenase (spASADH) (Streptococcus pneumoniae, UniProt Q8DQ00); assay: biochemical; details: for inhibition / binding affinity for spASADH (in words): relative to parent or neighbouring derivative
[2] = target: T1, Streptococcus pneumoniae aspartate semialdehyde dehydrogenase (spASADH) (Streptococcus pneumoniae, UniProt Q8DQ00); assay: spASADH kinetic assay: reverse direction, NADPH absorbance at 340 nm; Ki from Dixon plot assuming competitive inhibition against ASA; details: pH 8.6, r.t., 0.15 mM ASA, 1.5 mM NADP, 20 mM phosphate
T1 construct: homodimer from general knowledge
T1 sequence (Q8DQ00 1-358): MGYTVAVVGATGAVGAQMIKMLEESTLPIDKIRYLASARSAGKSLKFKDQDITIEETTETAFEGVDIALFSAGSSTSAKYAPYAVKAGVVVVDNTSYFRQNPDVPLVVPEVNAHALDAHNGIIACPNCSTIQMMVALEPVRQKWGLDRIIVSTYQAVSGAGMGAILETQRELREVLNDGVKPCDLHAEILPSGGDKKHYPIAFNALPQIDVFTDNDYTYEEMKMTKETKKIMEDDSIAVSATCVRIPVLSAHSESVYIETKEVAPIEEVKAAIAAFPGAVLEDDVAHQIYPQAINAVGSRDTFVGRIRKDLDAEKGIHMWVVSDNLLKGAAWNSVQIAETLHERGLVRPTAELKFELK

[3] = target: Vibrio cholerae aspartate semialdehyde dehydrogenase (vcASADH); assay: vcASADH kinetic assay: reverse direction, NADPH absorbance at 340 nm; Ki from Dixon plot assuming competitive inhibition against ASA; details: pH 8.6, r.t., 0.3 mM ASA, 1.5 mM NADP, 20 mM phosphate
[4] = target: T2, Vibrio cholerae aspartate semialdehyde dehydrogenase (vcASADH) (Vibrio cholerae serotype O1, UniProt P23247); assay: biochemical; details: for inhibition / binding affinity for vcASADH (in words): relative to parent or neighbouring derivative
T2 construct: made in house

[5] = competitive vs ASA, 0.15 mM ASA, pH 8.6, read-out: Ki for spASADH

T2 sequence (P23247 whole entry): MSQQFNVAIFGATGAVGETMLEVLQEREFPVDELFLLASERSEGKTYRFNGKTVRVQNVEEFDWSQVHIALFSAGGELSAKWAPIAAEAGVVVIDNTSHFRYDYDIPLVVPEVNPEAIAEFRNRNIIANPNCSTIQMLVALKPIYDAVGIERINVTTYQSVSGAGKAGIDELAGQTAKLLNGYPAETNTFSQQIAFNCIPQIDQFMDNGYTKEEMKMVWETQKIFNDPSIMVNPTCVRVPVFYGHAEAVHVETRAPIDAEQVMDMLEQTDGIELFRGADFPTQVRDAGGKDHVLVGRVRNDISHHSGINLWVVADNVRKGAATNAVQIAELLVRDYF

| Molecule | inhibition / binding affinity for spASADH (in words) [1] | Ki ([2]; FIG. 5, Table 2) [µM] | Ki ([3]; FIG. 5, Table 2) [µM] | Ki ([3]; FIG. 4, Table 1) [µM] | Ki ([2]; FIG. 4, Table 1) [µM] | also measured |
| --- | --- | --- | --- | --- | --- | --- |
| O=C(O)CN(Cc1ccc(C(F)(F)F)cc1)Cc1ccc(C(=O)O)c(C(=O)O)c1 [Compound 36, N-(4-trifluoromethylbenzyl)-N-carboxymethyl-3,4-dicarboxybenzylamine] | substantial affinity loss | 3800 ± 220 | – | – | – | – |
| O=C(O)CN(Cc1ccc(C(=O)O)c(C(=O)O)c1)Cc1ccccc1C(F)(F)F [Compound 24, N-(2-trifluoromethylbenzyl)-N-carboxymethyl-3,4-dicarboxybenzylamine] | did not alter the affinity | 509 ± 29 | 727 ± 60 | – | – | inhibition / binding affinity for vcASADH (in words) [4]: did not alter the affinity |
| C=CCN(CC(=O)O)Cc1ccc(C(=O)O)c(C(=O)O)c1 [Compound 11, N-allyl, N-carboxymethyl-3,4-dicarboxybenzylamine] | – | – | – | 663 ± 36 | 303 ± 22 | – |
| O=C(O)c1ccc(CN[C@@H](CO)C(=O)O)cc1C(=O)O [Compound 6, N-((2-hydroxymethyl)carboxymethyl)-3,4-dicarboxybenzylamine] | no appreciable effect on the binding affinity; also recorded: did not lead to enhanced affinity | – | – | 654 ± 22 | 324 ± 24 | inhibition / binding affinity for vcASADH (in words) [4]: no appreciable effect on the binding affinity |
| O=C(O)CN(Cc1ccc(C(=O)O)c(C(=O)O)c1)Cc1ccccc1Br [Compound 18, N-(2-bromobenzyl)-N-carboxymethyl-3,4-dicarboxybenzylamine] | did not yield any improvement in affinity | 529 ± 38 | 737 ± 49 | – | – | – |
| CN(CC(=O)O)Cc1ccc(C(=O)O)c(C(=O)O)c1 [Compound 10, N-methyl, N-carboxymethyl-3,4-dicarboxybenzylamine] | – | – | – | 675 ± 54 | 296 ± 36 | – |
| O=C(O)CN(Cc1ccc(C(=O)O)cc1)Cc1ccc(C(=O)O)c(C(=O)O)c1 [Compound 31, N-(4-carboxybenzyl)-N-carboxymethyl-3,4-dicarboxybenzylamine] | comparable affinity to that observed for the p-methylbenzyl derivative (23) | 72 ± 7 | 635 ± 55 | – | – | – |
| Cc1ccccc1CN(CC(=O)O)Cc1ccc(C(=O)O)c(C(=O)O)c1 [Compound 21, N-(2-methylbenzyl)-N-carboxymethyl-3,4-dicarboxybenzylamine] | did not yield any improvement in affinity | 524 ± 27 | 721 ± 46 | – | – | – |
| O=C(O)CN(Cc1ccc(C(=O)O)c(C(=O)O)c1)Cc1cccc2ccccc12 [Compound 14] | slightly worse inhibition | – | – | – | – | – |
| O=C(O)CN(Cc1ccc(C(F)(F)F)cc1)Cc1ccc(C(=O)O)c(C(=O)O)c1 [Compound 26, N-(4-trifluoromethylbenzyl)-N-carboxymethyl-3,4-dicarboxybenzylamine] | two-fold additional improvement in binding affinity | – | 628 ± 48 | – | – | – |
| O=C(O)CNCc1ccc(C(=O)O)c(C(=O)O)c1 [Compound 3, N-carboxymethyl-3,4-dicarboxybenzylamine] | two-fold stronger inhibitor; also recorded: high millimolar inhibitor | – | – | – | 246 ± 20 | Ki [4]: 500 µM; inhibition / binding affinity for vcASADH (in words) [4]: high millimolar inhibitor |
| NC(=O)c1ccc(CN(CC(=O)O)Cc2ccc(C(=O)O)c(C(=O)O)c2)cc1 [Compound 32, N-(4-carboxamidebenzyl)-N-carboxymethyl-3,4-dicarboxybenzylamine] | – | 229 ± 32 | 649 ± 25 | – | – | loss of affinity ([1]; carboxamide vs p-carboxyl derivative (31)): 3 fold |
| O=C(O)CN(Cc1ccc(OC(F)F)cc1)Cc1ccc(C(=O)O)c(C(=O)O)c1 [Compound 30, N-(4-difluoromethoxybenzyl)-N-carboxymethyl-3,4-dicarboxybenzylamine] | reversed this improvement | 54 ± 5 | 698 ± 44 | – | – | – |
| Cc1cccc(CN(CC(=O)O)Cc2ccc(C(=O)O)c(C(=O)O)c2)c1 [Compound 22, N-(3-methylbenzyl)-N-carboxymethyl-3,4-dicarboxybenzylamine] | did not yield any improvement in affinity | 430 ± 22 | 690 ± 41 | – | – | – |
| CC(=O)N(CC(=O)O)Cc1ccc(C(=O)O)c(C(=O)O)c1 [Compound 37, N-acetal-N-carboxymethyl-3,4-dicarboxybenzylamine] | – | – | – | 655 ± 51 | 276 ± 16 | – |
| O=C(O)CCNCc1ccc(C(=O)O)c(C(=O)O)c1 [Compound 4, N-carboxyethyl-3,4-dicarboxybenzylamine] | substantial affinity loss | – | – | – | – | inhibition / binding affinity for vcASADH (in words) [4]: did not show appreciable inhibition; Ki [1, 5]: 2400 µM |
| O=C(O)CN(CCN1CCOCC1)Cc1ccc(C(=O)O)c(C(=O)O)c1 [Compound 16, N-(ethylmorpholino)-N-carboxymethyl-3,4-dicarboxybenzylamine] | only a slight improvement | – | – | – | – | – |
| O=C(O)CN(Cc1cccc(Br)c1)Cc1ccc(C(=O)O)c(C(=O)O)c1 [Compound 19, N-(3-bromobenzyl)-N-carboxymethyl-3,4-dicarboxybenzylamine] | did not yield any improvement in affinity | 442 ± 29 | 665 ± 37 | – | – | – |
| N-(1-naphthyl)-N-carboxymethyl-3,4-dicarboxybenzylamine [Compound 14] | – | – | – | 749 ± 54 | 396 ± 42 | – |
| O=C(O)CN(Cc1ccc(C(F)(C(F)(F)F)C(F)(F)F)cc1)Cc1ccc(C(=O)O)c(C(=O)O)c1 [Compound 34, N-(4-(2-perfluoropropyl))-N-carboxymethyl-3,4-dicarboxybenzylamine] | low micromolar K value | – | 639 ± 37 | – | – | Ki [1]: 9 µM |
| O=C(O)CN(Cc1ccc(C=Cc2ccccc2)cc1)Cc1ccc(C(=O)O)c(C(=O)O)c1 [Compound 38, N-((4-(2-benzyl)vinyl)benzyl)-N-carboxymethyl-3,4-dicarboxybenzylamine] | – | – | 1100 ± 200 | – | – | – |
| O=C(O)CCN(Cc1ccc(Br)cc1)Cc1ccc(C(=O)O)c(C(=O)O)c1 [Compound 35, N-(4-bromobenzyl)-N-carboxyethyl-3,4-dicarboxybenzylamine] | substantial affinity loss | 3600 ± 230 | – | – | – | – |
| CC(C)(C)c1ccc(CN(CC(=O)O)Cc2ccc(C(=O)O)c(C(=O)O)c2)cc1 [Compound 33, N-(4-t-butylbenzyl)-N-carboxymethyl-3,4-dicarboxybenzylamine] | additional two-fold improvement | – | 648 ± 32 | – | – | selectivity for spASADH relative to vcASADH ([1]; Gram-positive spASADH over Gram-negative vcASADH): over 40 fold; Ki [1, 5]: 16 µM |
| O=C(O)CN(Cc1ccc(OC(F)(F)F)cc1)Cc1ccc(C(=O)O)c(C(=O)O)c1 [Compound 29, N-(4-trifluoromethoxybenzyl)-N-carboxymethyl-3,4-dicarboxybenzylamine] | two-fold additional improvement in binding affinity | 36 ± 6 | 663 ± 39 | – | – | – |
| N-acetonitrile, N-carboxymethyl-3,4-dicarboxybenzylamine [Compound 12] | – | – | – | 498 ± 27 | 220 ± 14 | – |
| O=C(O)CN(Cc1ccccc1)Cc1ccc(C(=O)O)c(C(=O)O)c1 [Compound 13, N-benzyl, N-carboxymethyl-3,4-dicarboxybenzylamine] | – | – | – | 696 ± 33 | 297 ± 14 | – |
| Cc1ccc(CN(CC(=O)O)Cc2ccc(C(=O)O)c(C(=O)O)c2)cc1 [Compound 23, N-(4-methylbenzyl)-N-carboxymethyl-3,4-dicarboxybenzylamine] | – | 63 ± 7 | 608 ± 42 | – | – | inhibition / binding affinity for vcASADH (in words) [4]: did not show any improved affinity |
| O=C(O)CN(Cc1ccc(C(=O)O)c(C(=O)O)c1)c1ccc(-c2ccccc2)cc1 [Compound 17, N-(4-biphenyl)-N-carboxymethyl-3,4-dicarboxybenzylamine] | improved binding affinity | – | – | 634 ± 29 | – | improved inhibition of spASADH relative to the parent benzyl derivative ([1]; relative to parent benzyl derivative): 25 fold |
| CN(CC(=O)O)Cc1cccc(C(=O)O)c1C(=O)O [Compound 9, N-methyl, N-carboxymethyl-2,3-dicarboxybenzylamine] | – | – | – | – | – | inhibition / binding affinity for vcASADH (in words) [4]: no inhibition; Ki [1, 5]: 1800 µM |
| O=C(O)CN(Cc1ccc(C(=O)O)c(C(=O)O)c1)c1ccc2ccccc2c1 [Compound 15, N-(2-naphthyl)-N-carboxymethyl-3,4-dicarboxybenzylamine] | slightly worse inhibition | – | – | 724 ± 47 | 329 ± 22 | – |
